Source: US20160157484A1, “NATURAL ANTIMICROBIAL COMPOSITIONS” (Lincoln Manufacturing Inc., priority 2011, published 2016)

Assay: Solubility and stability of 20% and 25% lauric acid in solvents and solvent mixtures

Glycereth 2-Cocoate
Solubility of 20% Lauric Acid (20% lauric acid in the named solvent): Not Soluble
Solubility of 25% Lauric Acid (25% lauric acid in the named solvent): Not Soluble
